Series [1] addresses C-C chemokine receptor type 2 (Homo sapiens) (UniProt P41597). The series can be described thus: Antagonist activity at CCR2 (unknown origin) assessed as inhibition of chemotaxis at 10 uM.
The target in series [2] is C-X-C chemokine receptor type 4 (Homo sapiens) (UniProt P61073). As to the kind of experiment: Antagonist activity at CXCR4 (unknown origin) assessed as inhibition of calcium flux at 10 uM. The series is classed as functional. Background: A change in cytosolic calcium serves as a functional read-out for many receptors and channels.
For the next series, the system named is Salmonella typhimurium. The series can be described thus: Genotoxicity in Salmonella typhimurium by Ames test in absence of S9 fractions. The class given is toxicity, organism-based. Particulars: salmonella enterica subsp. enterica serovar typhimurium. (In general: The Ames test uses bacterial strains that need an amino acid and regain growth without it when mutated back.)

A short description of series [3]: Oral bioavailability in Sprague-Dawley rat at 5 mg/kg. The series is classed as ADME, organism-based. The settings on record: in vivo.
Another series deals with Rattus norvegicus. The series can be described thus: Toxicity in Sprague-Dawley rat assessed as effect on body weight at 70 to 360 mg/kg, po after 7 days. The class given is organism-based. Also on record: dose 70-360 mg/kg, route oral. Particulars: in vivo, 168 h.

The structures appear in SMILES notation. Activity calls are given as the source filed them. The rule behind the calls is not given here.

C-X-C chemokine receptor type 4 (Homo sapiens), sequence (P61073 whole entry): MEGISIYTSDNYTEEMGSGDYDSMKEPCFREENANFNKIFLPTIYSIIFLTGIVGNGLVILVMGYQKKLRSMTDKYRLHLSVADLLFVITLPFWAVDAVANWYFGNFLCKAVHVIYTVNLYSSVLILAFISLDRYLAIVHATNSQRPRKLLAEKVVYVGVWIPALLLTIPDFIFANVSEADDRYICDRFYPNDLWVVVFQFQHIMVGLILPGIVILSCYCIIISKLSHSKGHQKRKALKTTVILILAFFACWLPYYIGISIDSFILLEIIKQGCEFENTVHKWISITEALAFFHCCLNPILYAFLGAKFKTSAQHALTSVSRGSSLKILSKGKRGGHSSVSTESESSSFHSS
C-C chemokine receptor type 2 (Homo sapiens), sequence (P41597 whole entry, looked up): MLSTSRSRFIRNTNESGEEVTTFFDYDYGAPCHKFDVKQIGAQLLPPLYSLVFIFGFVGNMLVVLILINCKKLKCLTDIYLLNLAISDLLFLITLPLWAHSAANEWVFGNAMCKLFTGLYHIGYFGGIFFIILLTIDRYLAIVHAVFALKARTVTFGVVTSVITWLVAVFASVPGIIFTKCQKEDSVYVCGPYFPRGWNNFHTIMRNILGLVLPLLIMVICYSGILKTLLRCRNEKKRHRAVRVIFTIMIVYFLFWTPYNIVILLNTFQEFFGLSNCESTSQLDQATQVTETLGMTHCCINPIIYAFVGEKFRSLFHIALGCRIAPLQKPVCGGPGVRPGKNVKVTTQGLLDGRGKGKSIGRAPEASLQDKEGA

By bioavailability is commonly meant dose-corrected exposure relative to a reference, in per cent. As for `COc1cc(N2CCN(C(=O)Cn3nc(C(F)(F)F)c(Cl)c3C)CC2)ccc1Cl`, the inhibition entry in series [1] and in series [2] was “inactive” in each case. For the same molecule, the Activity entry in the series with Salmonella typhimurium and with Rattus norvegicus was “Non-toxic” in each case. The molecule further gave a bioavailability in series [3] of 52%.

(Values after ChEMBL document CHEMBL2321873, “1-(4-Phenylpiperazin-1-yl)-2-(1H-pyrazol-1-yl)ethanones as novel CCR1 antagonists” (Bioorg Med Chem Lett, 2013).)
